Source: US20240190872A1, “FABI INHIBITORS FOR GRAM-NEGATIVE PATHOGENS” (THE BOARD OF TRUSTEES OF THE UNIVERSITY OF ILLINOIS, priority 2021, published 2024)
≈ marks a conversion by molar mass, not a printed value.

Columns and labels:
Hep G2 = test: Toxicity screen against mammalian cell lines (72 h); assay type: cell-based
IMR90 = test: Toxicity screen against mammalian cell lines (72 h), Alamar Blue; assay type: cell-based
Procedure: Cell culture. IMR90 cells were obtained from ATCC. IMR90 cells were grown in EMEM with 10% fetal bovine serum (Gemini Benchmark, Cat# 100-106), 100 U/mL penicillin, and 100 μg/mL streptomycin. All cells were cultured at 37° C. in a 5% CO2 environment. Media was prepared by the Univeristy of Illinois School of Chemical Sciences Cell Media Facility. Sex and age of cell lines: IMR90 ([…]).
Cell viability. Cells seeded (IMR90: 5,000 cells/well) a 96-well plate (Greiner Bio-One, Cat# 655180) and were allowed to attach overnight. […] Raptinal (100 μM) was used as a dead control. After 24 h post-treatment, media was exchanged with compound-free media. […] Stock Alamar Blue solution [10 μL, 440 μM resazurin (Sigma-Aldrich, Cat# R7017) in sterile 1×PBS] was added to each well, and plate was incubated […]. Conversion of Alamar Blue was measured with plate reader (SpectraMax M3, Molecular Devices) by fluorescence (ex 555 nm, em 585 nm, cutoff 570 nm, autogain). Percent death was determined by normalizing to DMSO-treated cells and raptinal-treated cells.

K. pneumoniae BAA 2472 = test: microbe, parasite or virus in culture; assay type: cell-based; details: clinical isolate
Procedure: (§1) The compounds synthesized, shown in Table 1, were evaluated against Gram-positive and Gram-negative reference strains (S. aureus 29213 and E. coli MG1655, respectively), as well as an efflux deficient E. coli strain (ΔtolC, JW5503).
(§2) Bacterial strains. S. aureus ATCC 29213, E. coli MG1655, E. coli BAA-2340, E. coli BAA-2469, E. coli BAA-2471, E. cloacae BAA-2341, E. cloacae BAA-2468, K. pneumoniae BAA-1705, K. pneumoniae BAA-2342, K. pneumoniae BAA-2470, K. pneumoniae BAA-2472, and K. pneumoniae BAA-2473 were obtained from ATCC. E. coli JW5503 and E. coli JW3596 were obtained from the KEIO Collection. E. cloacae ATCC 29893 was provided by W. van der Donk (UIUC). E. coli AR-0346, E. coli AR-0349, E. coli AR-0493, E. coli AR-0495, and K. pneumoniae AR-0347 were obtained from the CDC and FDA AR Isolate Bank. E. coli F20987, E. coli M66623, E. cloacae S28901.1, K. pneumoniae M14723, K. pneumoniae M67198, K. pneumoniae M67297, K. pneumoniae S20595, K. pneumoniae S47889, A. baumannii W41979, A. baumannii F19521, A. baumannii M13100, and A. baumannii WO22 were obtained from the University of Illinois Chicago Medical School. A. baumannii KB304, A. baumannii KB343, and A. baumannii KB357 were provided by J. Quale.
(§3) Antimicrobial susceptibility tests. Susceptibility testing was performed in biological triplicate, using the micro-dilution broth method as outlined by the Clinical and Laboratory Standards Institute. Bacteria were cultured with cation-adjusted Muller-Hinton broth (Sigma-Aldrich, Cat# 90922) in round-bottom 96-well plates (Corning, Cat# 3788). Human serum (pooled gender, 0.2 μm filtered) was purchased from BioIVT (Hicksville, NY).

A. baumannii AR 0273 = test: microbe, parasite or virus in culture; assay type: cell-based; details: clinical isolate
Procedure: as §3

A. baumannii AR 0313 = test: microbe, parasite or virus in culture; assay type: cell-based; details: clinical isolate
Procedure: as §3

E. coli AR 0048 = test: microbe, parasite or virus in culture; assay type: cell-based; details: clinical isolate
Procedure: as §3

A. baumannii AR 0299 = test: microbe, parasite or virus in culture; assay type: cell-based; details: clinical isolate
Procedure: as §3

A. baumannii AR 0033 = test: microbe, parasite or virus in culture; assay type: cell-based; details: clinical isolate
Procedure: as §3

E. coli AR 0085 = test: microbe, parasite or virus in culture; assay type: cell-based; details: clinical isolate
Procedure: as §3

K. pneumoniae AR 0113 = test: microbe, parasite or virus in culture; assay type: cell-based; details: clinical isolate
Procedure: as §3

K. pneumoniae AR 0560 = test: microbe, parasite or virus in culture; assay type: cell-based; details: clinical isolate
Procedure: as §3

K. pneumoniae AR 0066 = test: microbe, parasite or virus in culture; assay type: cell-based; details: clinical isolate
Procedure: as §3

S. aureus ATCC 29213 = test: Antimicrobial susceptibility test (MIC), micro-dilution broth; assay type: cell-based; details: S. aureus ATCC 29213
From the text: as §2, §3

E. coli MG1655 = test: Antimicrobial susceptibility test (MIC); assay type: cell-based; details: E. coli MG1655
From the text: as §2, §3

E. coli ΔtolC (JW5503) = assay type: cell-based; details: efflux deficient E. coli ΔtolC
Procedure: as §1, §2, §3

in vivo = details: female, C57BL/6, mouse, in vivo, ip
Procedure: Mouse MTD of Debio-1452-NH3. The protocol was approved by the IACUC at the University of Illinois at Urbana-Champaign (Protocol Number:16144). In these studies, 10- to 12-week-old female C57BL/6 mice purchased from Charles River were used. The maximum tolerate dose (MTD) of single compound was determined first. Debio-1452 amine analogues were formulated in 20% sulfobutyl ether β-cyclodextrin in sterile water. Debio-1452-NH3 (1), and compounds 2 and 3 were given by IP injection and mice were monitored for signs of toxicity for 2 weeks (single dose). For multiple dose, the compound was given by daily IP for 5 consecutive days and mice were monitored for signs of toxicity for 1 month. MTD was the highest dosage with acceptable toxicity (e.g. <20% weight loss). Single dose MTDs were initially determined. […] The MTD of Debio-1452-NH3 (1) was used to inform the dosing schedule used in subsequent efficacy studies.

A. baumannii FabI = A. baumannii FabI (Acinetobacter baumannii, UniProt D0CAD5); test: biochemical; details: purified FabI, apparent inhibition constant; read-out: A. baumannii FabI Ki^app
Procedure: Mode of Action. To probe the effects of varying ring systems and amine placement on FabI target engagement, the apparent inhibition constants (Ki^app) for select compounds were determined using purified FabI. The goal of these studies was two-fold, to comparatively assess fabimycin, Debio-1452-NH3, and Debio-1452, and to also assess differential activity against the E. coli and A. baumannii versions of FabI. FabI from E. coli and A. baumannii were recombinantly expressed and purified, and the ability for each compound to inhibit the activity of these enzymes was evaluated using a standard FabI enzyme assay.
In vitro FabI inhibition assay. NADH (Sigma-Aldrich, Cat# N8129) and crotonoyl-CoA (Sigma-Aldrich, Cat# 28007) were both diluted into activity buffer [100 mM potassium glutamate (pH 7.8)], and working solution was dispensed into two columns of round-bottom 96-well plate (330 μL per well). Inhibitors, dissolved in DMSO at 200× final concentration, were added to each well via multichannel pipette (2.48 μL per well). After thorough mixing, this mixture was transferred to UV-transparent plate (UV-STAR half-area 96-well plate, Greiner Bio-One, Cat#675801, 100 μL per well, three technical replicates per inhibitor concentration). Plate was placed in plate-reader (SpectraMax 190, Molecular Devices) under temperature control (25° C.), and temperature was allowed to equilibrate. Fresh aliquot of enzyme from −80° C. was thawed on ice and diluted in activity buffer. Enzyme working solution was added to plate (50 μL per well, 20 nM enzyme final). After shaking for 5 s, reaction progress was monitored by absorbance at 340 nm every 15 s for 90 min. Linear portion of reaction progress curve was fit using plate-reader software (SoftMax Pro 7.0). Percent activity was calculated relative to DMSO-only and no-enzyme controls in each plate. Percent activity curves were fit to Morrison's quadratic using Graphpad Prism 6.0 to obtain apparent Ki.

Sequence of A. baumannii FabI (D0CAD5 1-288): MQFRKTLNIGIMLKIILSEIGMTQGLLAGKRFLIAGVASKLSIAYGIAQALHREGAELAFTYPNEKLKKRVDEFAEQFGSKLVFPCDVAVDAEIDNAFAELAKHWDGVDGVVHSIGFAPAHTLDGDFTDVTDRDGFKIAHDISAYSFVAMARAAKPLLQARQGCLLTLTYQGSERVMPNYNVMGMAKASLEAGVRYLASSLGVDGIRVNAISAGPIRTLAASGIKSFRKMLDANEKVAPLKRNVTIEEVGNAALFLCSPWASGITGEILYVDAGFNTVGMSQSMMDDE

Molecule	Hep G2 % Cell Death (Hep G2; 30 μM) [%]	Hep G2 % Cell Death (Hep G2; 100 μM) [%]	IMR90 % Cell Death (IMR90; 30 μM) [%]	IMR90 % Cell Death (IMR90; 100 μM) [%]	MIC K. pneumoniae BAA 2472 (K. pneumoniae BAA 2472) [µg/mL]	MIC A. baumannii AR 0273 (A. baumannii AR 0273) [µg/mL]	MIC A. baumannii AR 0313 (A. baumannii AR 0313) [µg/mL]	MIC E. coli AR 0048 (E. coli AR 0048) [µg/mL]	MIC A. baumannii AR 0299 (A. baumannii AR 0299) [µg/mL]	MIC A. baumannii AR 0033 (A. baumannii AR 0033) [µg/mL]	MIC E. coli AR 0085 (E. coli AR 0085) [µg/mL]	MIC K. pneumoniae AR 0113 (K. pneumoniae AR 0113) [µg/mL]	MIC K. pneumoniae AR 0560 (K. pneumoniae AR 0560) [µg/mL]	MIC K. pneumoniae AR 0066 (K. pneumoniae AR 0066) [µg/mL]	MIC S. aureus 29213 (S. aureus ATCC 29213) [µg/mL]	MIC E. coli MG1655 (E. coli MG1655) [µg/mL]	MIC E. coli ΔtolC (E. coli ΔtolC (JW5503)) [µg/mL]	MTD at 2 weeks (in vivo) [mg/kg]	Ki (A. baumannii FabI) [nM]
Cc1c(CN(C)C(=O)/C=C/c2ccc3c(c2)CCC(N)C(=O)N3)oc2ccccc12 (stereo not drawn)	12 ± 5	58 ± 10	8 ± 3	67 ± 2	–	–	–	–	–	–	–	–	–	–	–	–	–	–	–
Cc1c(CN(C)C(=O)C=Cc2cnc3c(c2)CC2(CC(N)C2)C(=O)N3)oc2ccccc12 (mixture of isomers) [(±)-6]	–	–	–	–	8	16	32	16	16	16	16	16	8	8	0.016	4	0.062	–	–
Cc1c(CN(C)C(=O)/C=C/c2cnc3c(c2)CCC(CN)C(=O)N3)oc2ccccc12 (racemic) [(±)-12]	–	–	–	–	32 (≈ 76.5 µM)	32 (≈ 76.5 µM)	>32	16 (≈ 38.2 µM)	32 (≈ 76.5 µM)	16 (≈ 38.2 µM)	8 (≈ 19.1 µM)	32 (≈ 76.5 µM)	16 (≈ 38.2 µM)	32 (≈ 76.5 µM)	0.031 (≈ 0.0741 µM)	8 (≈ 19.1 µM)	0.125 (≈ 0.299 µM)	–	–
Cc1c(CN(C)C(=O)/C=C/c2cnc3c(c2)CC(CCN)C(=O)N3)oc2ccccc12.Cl (stereo not drawn) [Compound 3, (E)-3-(6-(aminoethyl)-7-oxo-5,6,7,8-tetrahydro-1,8-naphthyridin-3-yl)-N-methyl-N-((3-methylbenzofuran-2-yl)methyl)acrylamide hydrochloride]	–	–	–	–	–	–	–	–	–	–	–	–	–	–	–	–	–	100	–
Cc1c(CN(C)C(=O)/C=C/c2cnc3c(c2)CC2(CNC2)C(=O)N3)oc2ccccc12 [Compound 5]	–	–	–	–	8 (≈ 19.2 µM)	8 (≈ 19.2 µM)	16 (≈ 38.4 µM)	8 (≈ 19.2 µM)	16 (≈ 38.4 µM)	8 (≈ 19.2 µM)	4 (≈ 9.6 µM)	16 (≈ 38.4 µM)	16 (≈ 38.4 µM)	8 (≈ 19.2 µM)	0.016 (≈ 0.0384 µM)	4 (≈ 9.6 µM)	0.031 (≈ 0.0744 µM)	–	–
Cc1c(CN(C)C(=O)/C=C/c2cnc3c(c2)CC(CCNC(=O)OC(C)(C)C)C(=O)N3)oc2ccccc12 (stereo not drawn) [Compound 10]	–	–	–	–	16 (≈ 30.9 µM)	8 (≈ 15.4 µM)	16 (≈ 30.9 µM)	8 (≈ 15.4 µM)	8 (≈ 15.4 µM)	16 (≈ 30.9 µM)	8 (≈ 15.4 µM)	32 (≈ 61.7 µM)	>32	32 (≈ 61.7 µM)	0.002 (≈ 0.00386 µM)	8 (≈ 15.4 µM)	0.031 (≈ 0.0598 µM)	–	–
Cc1c(CN(C)C(=O)/C=C/c2cnc3c(c2)CC2(CNC2)C(=O)N3)oc2ccccc12 [drawing 106]	–	–	–	–	8 (≈ 19.2 µM)	16 (≈ 38.4 µM)	16 (≈ 38.4 µM)	8 (≈ 19.2 µM)	16 (≈ 38.4 µM)	8 (≈ 19.2 µM)	4 (≈ 9.6 µM)	16 (≈ 38.4 µM)	16 (≈ 38.4 µM)	8 (≈ 19.2 µM)	–	–	–	–	–
(R,E)-3-(7-amino-8-oxo-6,7,8,9-tetrahydro-5H-pyrido[2,3]azepin-3-yl)-N-methyl-N-((3-methylbenzofuran-2-yl)methyl)acrylamide [(R)-11]	–	–	–	–	>128	>128	>128	128	>128	>128	128	>128	>128	>128	0.125	64	0.5	–	89 ± 11
